Data reported in ChEMBL document CHEMBL1201862, “PubChem BioAssay data set” (2004).
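48-hour exposure; five concentrations; linearly interpolated endpoints. GI50 is the concentration that inhibits growth by half.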 Activity calls are given as the source filed them. No stated cut-off is given here; in the data, active = GI50 up to about 1.1 µM and inactive = higher.

What was measured:
Test in all cases: NCI-60 cell line screen, 48 h
786-0 = tested on: 786-0
HOP-62 = tested on: HOP-62
SNB-19 = tested on: SNB-19
MDA-MB-435 = tested on: MDA-MB-435
TK-10 = tested on: TK-10
OVCAR-8 = tested on: OVCAR-8
SF-295 = tested on: SF-295
U-251 = tested on: U-251
MDA-N = tested on: MDA-N
SK-MEL-5 = tested on: SK-MEL-5
SR = tested on: SR
IGROV-1 = tested on: IGROV-1
HCC 2998 = tested on: HCC 2998
SNB-75 = tested on: SNB-75
EKVX = tested on: EKVX
LOX IMVI = tested on: LOX IMVI
UACC-257 = tested on: UACC-257
NCI-H23 = tested on: NCI-H23
CCRF-CEM = tested on: CCRF-CEM

Row | SMILES | GI50 (786-0) | GI50 (HOP-62) | GI50 (SNB-19) | GI50 (MDA-MB-435) | GI50 (TK-10) | GI50 (OVCAR-8) | GI50 (SF-295) | GI50 (U-251) | GI50 (MDA-N) | GI50 (SK-MEL-5) | GI50 (SR) | GI50 (IGROV-1) | GI50 (HCC 2998) | GI50 (SNB-75) | GI50 (EKVX) | GI50 (LOX IMVI) | GI50 (UACC-257) | GI50 (NCI-H23) | GI50 (CCRF-CEM)
1 | C[C@H]1[C@H](C)N(Cc2ccccc2)P(=O)(C(O)/C=C/c2ccccc2)N1Cc1ccccc1 (stereo partly specified) | 5.32 µM (inactive) | 8.41 µM (inactive) | 12 µM (inactive) | 4.33 µM (inactive) | 7.01 µM (inactive) | 8.53 µM (inactive) | 6.95 µM (inactive) | 5.11 µM (inactive) | 5.55 µM (inactive) | 4.55 µM (inactive) | 6.55 µM (inactive) | 8.32 µM (inactive) | 6.3 µM (inactive) | 6.95 µM (inactive) | 7.67 µM (inactive) | 6.76 µM (inactive) | 5.42 µM (inactive) | 9.84 µM (inactive) | –
2 | O=C(O)c1ccccc1C1c2ccccc2Oc2ccccc21 | 49.5 µM (inactive) | 41.3 µM (inactive) | 85.7 µM (inactive) | 52.4 µM (inactive) | > 100 µM (inactive) | 96.6 µM (inactive) | 40.2 µM (inactive) | 35.2 µM (inactive) | 58.6 µM (inactive) | 41.4 µM (inactive) | 41.9 µM (inactive) | 76 µM (inactive) | – | 22.6 µM (inactive) | 49.2 µM (inactive) | 98.4 µM (inactive) | > 100 µM (inactive) | 39.7 µM (inactive) | > 100 µM (inactive)
3 | NCCSCCc1ccccc1 | > 100 µM (inactive) | > 100 µM (inactive) | > 100 µM (inactive) | > 100 µM (inactive) | > 100 µM (inactive) | > 100 µM (inactive) | > 100 µM (inactive) | > 100 µM (inactive) | > 100 µM (inactive) | > 100 µM (inactive) | 88.3 µM (inactive) | > 100 µM (inactive) | > 100 µM (inactive) | > 100 µM (inactive) | > 100 µM (inactive) | > 100 µM (inactive) | > 100 µM (inactive) | > 100 µM (inactive) | –
4 | O=[N+]([O-])c1cc(Cc2cc([N+](=O)[O-])c3cccnc3c2O)c(O)c2ncccc12 | 5.82 µM (inactive) | 9.1 µM (inactive) | 6.78 µM (inactive) | 10.5 µM (inactive) | 12.4 µM (inactive) | 3.6 µM (inactive) | 6.15 µM (inactive) | 3.91 µM (inactive) | 10.6 µM (inactive) | 6.79 µM (inactive) | 0.845 µM (active) | 3.31 µM (inactive) | – | 7.18 µM (inactive) | 6.37 µM (inactive) | 3.91 µM (inactive) | 2.65 µM (inactive) | 9.48 µM (inactive) | 1.77 µM (inactive)
5 | CC(C)(Cl)C(Br)CCC(C)(Cl)C(Br)CBr (stereo unspecified) | 24.5 µM (inactive) | 24.9 µM (inactive) | 39.4 µM (inactive) | 26.7 µM (inactive) | 35.4 µM (inactive) | > 100 µM (inactive) | 20.2 µM (inactive) | 24.1 µM (inactive) | 31 µM (inactive) | 18.2 µM (inactive) | 2.58 µM (inactive) | 23.3 µM (inactive) | 38.1 µM (inactive) | 25.1 µM (inactive) | 32.1 µM (inactive) | – | 19.6 µM (inactive) | 20.7 µM (inactive) | 18.8 µM (inactive)
6 | O=[N+]([O-])c1ccc2[nH]c(-c3ccc(Cl)cc3)nc2c1 | 33 µM (inactive) | 21.5 µM (inactive) | 26 µM (inactive) | 23.6 µM (inactive) | 32.6 µM (inactive) | 30.1 µM (inactive) | 20.3 µM (inactive) | – | 24 µM (inactive) | 16.1 µM (inactive) | 26.3 µM (inactive) | 31 µM (inactive) | – | 25 µM (inactive) | 14.4 µM (inactive) | 18.1 µM (inactive) | 20.5 µM (inactive) | 25.3 µM (inactive) | –
7 | CCOC(=O)NC(=S)NN(C)C1=NCC(C)(C)S1 | > 100 µM (inactive) | > 100 µM (inactive) | > 100 µM (inactive) | > 100 µM (inactive) | > 100 µM (inactive) | – | > 100 µM (inactive) | > 100 µM (inactive) | > 100 µM (inactive) | > 100 µM (inactive) | > 100 µM (inactive) | > 100 µM (inactive) | – | > 100 µM (inactive) | > 100 µM (inactive) | > 100 µM (inactive) | > 100 µM (inactive) | – | > 100 µM (inactive)
8 | Cn1c(=O)c2c(nc(NCCCCl)n2CC(=O)NCCCCl)n(C)c1=O | > 100 µM (inactive) | > 100 µM (inactive) | > 100 µM (inactive) | > 100 µM (inactive) | > 100 µM (inactive) | > 100 µM (inactive) | > 100 µM (inactive) | > 100 µM (inactive) | > 100 µM (inactive) | > 100 µM (inactive) | – | > 100 µM (inactive) | > 100 µM (inactive) | > 100 µM (inactive) | > 100 µM (inactive) | > 100 µM (inactive) | > 100 µM (inactive) | > 100 µM (inactive) | > 100 µM (inactive)
9 | CCOC(=O)CCCN | > 100 µM (inactive) | > 100 µM (inactive) | > 100 µM (inactive) | > 100 µM (inactive) | > 100 µM (inactive) | > 100 µM (inactive) | > 100 µM (inactive) | > 100 µM (inactive) | > 100 µM (inactive) | > 100 µM (inactive) | – | > 100 µM (inactive) | > 100 µM (inactive) | > 100 µM (inactive) | > 100 µM (inactive) | > 100 µM (inactive) | > 100 µM (inactive) | > 100 µM (inactive) | > 100 µM (inactive)
10 | NNc1nnc(-c2nnc(NN)o2)o1 | > 10 µM (inactive) | > 10 µM (inactive) | > 10 µM (inactive) | > 10 µM (inactive) | > 10 µM (inactive) | > 10 µM (inactive) | > 10 µM (inactive) | > 10 µM (inactive) | > 10 µM (inactive) | > 10 µM (inactive) | > 10 µM (inactive) | > 10 µM (inactive) | > 10 µM (inactive) | – | > 10 µM (inactive) | – | > 10 µM (inactive) | > 10 µM (inactive) | > 10 µM (inactive)
11 | CCOP(=O)(OCC)/C(C#N)=C/c1coc2cc(C)cc(C)c2c1=O | > 100 µM (inactive) | > 100 µM (inactive) | > 100 µM (inactive) | > 100 µM (inactive) | – | > 100 µM (inactive) | > 100 µM (inactive) | > 100 µM (inactive) | > 100 µM (inactive) | > 100 µM (inactive) | > 100 µM (inactive) | > 100 µM (inactive) | > 100 µM (inactive) | > 100 µM (inactive) | > 100 µM (inactive) | > 100 µM (inactive) | > 100 µM (inactive) | > 100 µM (inactive) | > 100 µM (inactive)
12 | O=C(O)CC1NC(/C(=C/c2ccccc2)NC(=O)c2ccccc2)OC1=O (stereo unspecified) | 29.4 µM (inactive) | 18.9 µM (inactive) | 25.9 µM (inactive) | 24.6 µM (inactive) | > 100 µM (inactive) | 25.9 µM (inactive) | 38.1 µM (inactive) | 18.4 µM (inactive) | 30.1 µM (inactive) | 16.4 µM (inactive) | – | 25.1 µM (inactive) | 37.9 µM (inactive) | 29 µM (inactive) | 39.6 µM (inactive) | 16.2 µM (inactive) | > 100 µM (inactive) | 42.7 µM (inactive) | 22.6 µM (inactive)
13 | CC1CCC(O)(C(C)(C(=O)O)c2ccccc2)CC1 (stereo unspecified) | > 100 µM (inactive) | 68.1 µM (inactive) | 48.3 µM (inactive) | > 100 µM (inactive) | > 100 µM (inactive) | > 100 µM (inactive) | > 100 µM (inactive) | 64 µM (inactive) | > 100 µM (inactive) | > 100 µM (inactive) | – | > 100 µM (inactive) | – | – | > 100 µM (inactive) | > 100 µM (inactive) | > 100 µM (inactive) | > 100 µM (inactive) | 82.8 µM (inactive)
14 | CC1OC(OC2C(O[C@H]3CC[C@@]4(C)[C@@H](CC[C@@H]5[C@@H]4CC[C@]4(C)[C@@H]6[C@H](C[C@@H]54)O[C@]4(CC[C@@H](C)CO4)[C@H]6C)C3)OC(CO)C(OC3OC(CO)C(O)C(OC4OCC(O)C(O)C4O)C3OC3OCC(O)C(O)C3O)C2O)C(O)C(O)C1O (stereo partly specified) | 1.64 µM (inactive) | 0.783 µM (active) | 0.995 µM (active) | 1.42 µM (inactive) | 1.66 µM (inactive) | 1.49 µM (inactive) | 0.904 µM (active) | 0.514 µM (active) | 3.73 µM (inactive) | 1.12 µM (inactive) | – | 1.01 µM (active) | 1.63 µM (inactive) | 1.45 µM (inactive) | 1.51 µM (inactive) | 0.514 µM (active) | 1.3 µM (inactive) | 1.52 µM (inactive) | 0.224 µM (active)
15 | O/N=C(\CC(O)(C(F)(F)F)C(F)(F)F)c1cccs1 | > 10 µM (inactive) | > 10 µM (inactive) | > 10 µM (inactive) | > 10 µM (inactive) | > 10 µM (inactive) | > 10 µM (inactive) | > 10 µM (inactive) | > 10 µM (inactive) | > 10 µM (inactive) | > 10 µM (inactive) | – | > 10 µM (inactive) | > 10 µM (inactive) | 7.46 µM (inactive) | > 10 µM (inactive) | > 10 µM (inactive) | > 10 µM (inactive) | > 10 µM (inactive) | > 10 µM (inactive)
16 | CC1CCCN(CC(O)CN2CCCc3ccccc32)C1 (stereo unspecified) | > 100 µM (inactive) | > 100 µM (inactive) | > 100 µM (inactive) | > 100 µM (inactive) | > 100 µM (inactive) | > 100 µM (inactive) | > 100 µM (inactive) | > 100 µM (inactive) | > 100 µM (inactive) | > 100 µM (inactive) | > 100 µM (inactive) | > 100 µM (inactive) | – | > 100 µM (inactive) | > 100 µM (inactive) | > 100 µM (inactive) | > 100 µM (inactive) | > 100 µM (inactive) | > 100 µM (inactive)
